Reference: the Kinase Knowledgebase extract (Sharma et al. 2016)

molecular target: MAPK14 (UniProt Q16539); experiment: p38 alpha Inhibition; details: not given
Sequence (Q16539 whole entry, looked up): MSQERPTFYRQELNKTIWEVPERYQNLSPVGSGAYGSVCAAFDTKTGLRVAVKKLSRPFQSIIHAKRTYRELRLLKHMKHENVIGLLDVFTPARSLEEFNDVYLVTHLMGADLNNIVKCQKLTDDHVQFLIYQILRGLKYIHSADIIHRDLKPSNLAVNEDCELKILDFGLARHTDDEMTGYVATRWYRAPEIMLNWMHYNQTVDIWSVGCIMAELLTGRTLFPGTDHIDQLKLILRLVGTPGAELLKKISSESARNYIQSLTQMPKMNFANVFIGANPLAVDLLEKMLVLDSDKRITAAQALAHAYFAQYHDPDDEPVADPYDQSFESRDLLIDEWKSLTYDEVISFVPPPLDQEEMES

`Fc1ccc(-c2nc(Nc3ccncc3)c3ccccc3n2)cc1` and `c1ccc(-c2nc(Nc3ccncc3)c3ccccc3n2)cc1` are within 1.5-fold of each other in IC50: 439 nM for the first, 457 nM for the second.

Compared with `Cc1ccccc1-c1nc(Nc2ccncc2)c2ccccc2n1`, `Fc1ccccc1-c1nc(Nc2ccncc2)c2ccccc2n1` is 3-fold lower in IC50: 345 nM for the first, 114 nM for the second.

Compared with `COc1cccc(Nc2nc(-c3ccccc3)nc3ccccc23)c1`, `c1ccc(-c2nc(NCc3ccncc3)c3ccccc3n2)cc1` is 2.1-fold higher in IC50: 578 nM for the first, 1200 nM for the second. The first is the more potent here.

First: Nc1ccc2nc(-c3ccccc3F)nc(Nc3ccncc3)c2c1
Second: Brc1ccccc1-c1nc(Nc2ccncc2)c2ccccc2n1
The IC50 of the first is 1.7-fold lower: 168 nM for the first, 285 nM for the second.

`Clc1ccccc1-c1nc(Nc2ccncc2)c2ccccc2n1` was tested, and the IC50 was 170 nM.

same assay, conditions: concentration not given here

Going from `N#Cc1cccc(Nc2nc(-c3ccccc3)nc3ccccc23)c1` to `Oc1cccc(Nc2nc(-c3ccccc3)nc3ccccc23)c1`, the inhibition rises from 13% to 19%.

Going from `CCC(C)c1ccc(Nc2nc(-c3ccccc3)nc3ccccc23)cc1` (stereo not drawn) to `Oc1ccc(Nc2nc(-c3ccccc3)nc3ccccc23)cc1`, the inhibition rises from 10% to 63%.

Compared with `O=[N+]([O-])c1ccc2nc(-c3ccccc3F)nc(Nc3ccncc3)c2c1`, `Nc1ccc2c(Nc3ccncc3)nc(-c3ccccc3F)nc2c1` is higher in inhibition: 91% for the first, 94% for the second.

Going from `Clc1ccc(-c2nc(NCc3ccncc3)c3ccccc3n2)cc1` to `c1ccc(-c2nc(NCc3ccncc3)c3ccccc3n2)cc1`, the inhibition rises from 51% to 64%.

First: c1ccc(-c2nc(NCc3cccnc3)c3ccccc3n2)cc1
Second: c1ccc(-c2nc(Nc3cccnc3)c3ccccc3n2)cc1
The inhibition of the first is higher: 54% for the first, 45% for the second.

Going from `Fc1ccc(-c2nc(Nc3ccncc3)c3ccccc3n2)cc1` to `COc1ccc(-c2nc(Nc3ccncc3)c3ccccc3n2)cc1`, the inhibition falls from 92% to 5%.

First: Clc1cccc(-c2nc(NCc3ccccc3)c3ccccc3n2)c1
Second: CN(C)c1ccc(CNc2nc(-c3ccccc3)nc3ccccc23)cc1
The inhibition of the first is higher: 37% for the first, 25% for the second.

`Cc1ccccc1-c1nc(Nc2ccncc2)c2ccccc2n1` and `Fc1ccccc1-c1nc(Nc2ccncc2)c2ccccc2n1` are the same in inhibition: 99% for the first, 99% for the second.

Going from `Fc1ccc(F)c(CNc2nc(-c3ccccc3)nc3ccccc23)c1` to `COc1cccc(Nc2nc(-c3ccccc3)nc3ccccc23)c1`, the inhibition rises from 63% to 95%.

Compared with `COc1cc2nc(-c3ccccc3Cl)nc(Nc3ccncc3)c2cc1OC`, `Clc1ccccc1-c1nc(Nc2ccncc2)c2ccccc2n1` is higher in inhibition: 97% for the first, 100% for the second.

Going from `CC(C)N(c1ccncc1)c1nc(-c2ccccc2)nc2ccccc12` to `COc1ccc(N(c2ccncc2)c2nc(-c3ccccc3)nc3ccccc23)cc1`, the inhibition falls from 69% to 47%.

`COc1cccc(CNc2ccc3nc(-c4ccccc4F)nc(Nc4ccncc4)c3c2)c1` and `COc1ccc(CNc2ccc3nc(-c4ccccc4F)nc(Nc4ccncc4)c3c2)cc1` are the same in inhibition: 96% for the first, 96% for the second.

Going from `COc1ccccc1Nc1nc(-c2ccccc2)nc2ccccc12` to `Oc1ccccc1Nc1nc(-c2ccccc2)nc2ccccc12`, the inhibition falls from 37% to 28%.

Going from `OCCc1ccc(Nc2nc(-c3ccccc3)nc3ccccc23)cc1` to `COc1ccc(Nc2nc(-c3ccccc3)nc3ccccc23)cc1`, the inhibition falls from 34% to 16%.

Going from `c1ccc(-c2nc(Nc3ncccn3)c3ccccc3n2)cc1` to `c1ccc(-c2nc(Nc3ccncn3)c3ccccc3n2)cc1`, the inhibition rises from 3% to 97%.

Compared with `c1ccc(-c2nc(Nc3ccc4[nH]ccc4c3)c3ccccc3n2)cc1`, `c1ccc(-c2nc(Nc3cccc4[nH]ccc34)c3ccccc3n2)cc1` is higher in inhibition: 70% for the first, 72% for the second.

Going from `Clc1cccc(Cl)c1-c1nc(Nc2ccncc2)c2ccccc2n1` to `Fc1cccc(F)c1-c1nc(Nc2ccncc2)c2ccccc2n1`, the inhibition rises from 85% to 97%.

Compared with `Brc1ccccc1-c1nc(Nc2ccncc2)c2ccccc2n1`, `Fc1cccc(-c2nc(Nc3ccncc3)c3ccccc3n2)c1` is lower in inhibition: 99% for the first, 68% for the second.

First: c1ccc(Nc2nc(-c3ccccc3)nc3ccccc23)cc1
Second: c1ccc(-c2nc(NCCc3ccccn3)c3ccccc3n2)cc1
The inhibition of the first is higher: 45% for the first, 16% for the second.

`Fc1ccccc1-c1nc(Nc2ccncc2)c2cccnc2n1` gave an inhibition of 97%.
